# Data: ChEMBL document CHEMBL4800730 (2021)
# Calls of active or inactive are those of the source. The rule behind the calls is not given here.
# Legend:
# [1] = biological target: Protein kinase C beta type (Homo sapiens) (UniProt P05771); assay: PRKCB1 (PKC beta I) SelectScreen Kinase panel (LifeTechnologies); settings: Compound concentration 1.0 uM
# [2] = biological target: Histamine H3 receptor (Homo sapiens) (UniProt Q9Y5N1); settings: Compound concentration 10.0 uM
# [3] = biological target: Hepatocyte growth factor receptor (Homo sapiens) (UniProt P08581); assay: MET (cMet) SelectScreen Kinase panel (LifeTechnologies); settings: Compound concentration 1.0 uM
# [4] = biological target: Serine/threonine-protein kinase D3 (Homo sapiens) (UniProt O94806); assay: PRKCN (PKD3) SelectScreen Kinase panel (LifeTechnologies); settings: Compound concentration 1.0 uM
# [5] = biological target: Alpha-2B adrenergic receptor (Homo sapiens) (UniProt P18089); settings: Compound concentration 10.0 uM
# [6] = NanoBRET assay (AKT1); settings: Homo sapiens
# [7] = biological target: Protein kinase C gamma type (Homo sapiens) (UniProt P05129); assay: PRKCG (PKC gamma) SelectScreen Kinase panel (LifeTechnologies); settings: Compound concentration 1.0 uM
# [8] = biological target: AMPK alpha2/beta1/gamma1 (Homo sapiens) (UniProt P54646+P54619+Q9Y478); assay: AMPK A2/B1/G1 SelectScreen Kinase panel (LifeTechnologies); format: protein-complex assay; settings: Compound concentration 1.0 uM
# [9] = biological target: 5-hydroxytryptamine receptor 1A (Homo sapiens) (UniProt P08908); settings: Compound concentration 10.0 uM
# [10] = biological target: 5-hydroxytryptamine receptor 2B (Homo sapiens) (UniProt P41595); settings: Compound concentration 10.0 uM
# [11] = biological target: Serine/threonine-protein kinase MRCK alpha (Homo sapiens) (UniProt Q5VT25); assay: CDC42 BPA (MRCKA) SelectScreen Kinase panel (LifeTechnologies); settings: Compound concentration 1.0 uM
# [12] = biological target: Muscarinic acetylcholine receptor M4 (Homo sapiens) (UniProt P08173); settings: Compound concentration 10.0 uM
# [13] = biological target: 5-hydroxytryptamine receptor 1E (Homo sapiens) (UniProt P28566); settings: Compound concentration 10.0 uM
# [14] = biological target: Tyrosine-protein kinase SYK (Homo sapiens) (UniProt P43405); assay: SYK SelectScreen Kinase panel (LifeTechnologies); settings: Compound concentration 1.0 uM
# [15] = biological target: Tyrosine-protein kinase TXK (Homo sapiens) (UniProt P42681); assay: TXK SelectScreen Kinase panel (LifeTechnologies); settings: Compound concentration 1.0 uM
# [16] = biological target: 5-hydroxytryptamine receptor 1B (Homo sapiens) (UniProt P28222); settings: Compound concentration 10.0 uM
# [17] = biological target: Rho-associated protein kinase 2 (Homo sapiens) (UniProt O75116); assay: ROCK2 SelectScreen Kinase panel (LifeTechnologies); settings: Compound concentration 1.0 uM
# [18] = biological target: Serine/threonine-protein kinase MARK1 (Homo sapiens) (UniProt Q9P0L2); assay: MARK1 (MARK) SelectScreen Kinase panel (LifeTechnologies); settings: Compound concentration 1.0 uM
# [19] = biological target: Protein kinase C iota type (Homo sapiens) (UniProt P41743); assay: PRKCI (PKC iota) SelectScreen Kinase panel (LifeTechnologies); settings: Compound concentration 1.0 uM
# Protein kinase C iota type (Homo sapiens), sequence (P41743 whole entry): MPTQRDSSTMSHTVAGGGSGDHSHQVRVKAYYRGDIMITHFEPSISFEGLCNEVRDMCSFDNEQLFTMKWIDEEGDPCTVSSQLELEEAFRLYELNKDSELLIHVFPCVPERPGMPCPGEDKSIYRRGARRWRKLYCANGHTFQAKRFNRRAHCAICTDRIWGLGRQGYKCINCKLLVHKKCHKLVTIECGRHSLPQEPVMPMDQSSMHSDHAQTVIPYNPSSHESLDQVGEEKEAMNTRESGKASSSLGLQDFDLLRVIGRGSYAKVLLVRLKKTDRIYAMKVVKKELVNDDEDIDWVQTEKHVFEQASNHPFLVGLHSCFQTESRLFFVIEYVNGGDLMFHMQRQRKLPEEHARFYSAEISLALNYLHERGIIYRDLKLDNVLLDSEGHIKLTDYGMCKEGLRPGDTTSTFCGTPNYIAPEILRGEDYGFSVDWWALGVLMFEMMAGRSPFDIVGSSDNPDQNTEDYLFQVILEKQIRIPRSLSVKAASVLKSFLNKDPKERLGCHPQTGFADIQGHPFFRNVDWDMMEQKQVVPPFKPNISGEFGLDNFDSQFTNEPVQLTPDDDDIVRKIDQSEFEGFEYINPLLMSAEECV
# [20] = biological target: Serine/threonine-protein kinase 3 (Homo sapiens) (UniProt Q13188); assay: STK3 (MST2) SelectScreen Kinase panel (LifeTechnologies); settings: Compound concentration 1.0 uM
# Serine/threonine-protein kinase 3 (Homo sapiens), sequence (Q13188 whole entry): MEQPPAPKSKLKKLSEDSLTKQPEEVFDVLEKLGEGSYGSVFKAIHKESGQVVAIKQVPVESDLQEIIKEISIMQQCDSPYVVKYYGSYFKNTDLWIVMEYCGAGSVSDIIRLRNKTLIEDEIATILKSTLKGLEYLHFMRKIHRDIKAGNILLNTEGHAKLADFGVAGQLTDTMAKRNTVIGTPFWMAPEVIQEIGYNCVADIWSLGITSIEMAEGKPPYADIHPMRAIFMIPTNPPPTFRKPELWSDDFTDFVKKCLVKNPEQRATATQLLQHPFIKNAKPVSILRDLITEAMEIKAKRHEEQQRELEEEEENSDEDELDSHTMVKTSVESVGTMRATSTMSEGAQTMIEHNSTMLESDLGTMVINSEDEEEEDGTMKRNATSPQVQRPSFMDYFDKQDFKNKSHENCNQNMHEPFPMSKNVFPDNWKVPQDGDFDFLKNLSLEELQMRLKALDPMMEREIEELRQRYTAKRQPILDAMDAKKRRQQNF
# [21] = biological target: Histamine H1 receptor (Homo sapiens) (UniProt P35367); settings: Compound concentration 10.0 uM
# Histamine H1 receptor (Homo sapiens), sequence (P35367 whole entry): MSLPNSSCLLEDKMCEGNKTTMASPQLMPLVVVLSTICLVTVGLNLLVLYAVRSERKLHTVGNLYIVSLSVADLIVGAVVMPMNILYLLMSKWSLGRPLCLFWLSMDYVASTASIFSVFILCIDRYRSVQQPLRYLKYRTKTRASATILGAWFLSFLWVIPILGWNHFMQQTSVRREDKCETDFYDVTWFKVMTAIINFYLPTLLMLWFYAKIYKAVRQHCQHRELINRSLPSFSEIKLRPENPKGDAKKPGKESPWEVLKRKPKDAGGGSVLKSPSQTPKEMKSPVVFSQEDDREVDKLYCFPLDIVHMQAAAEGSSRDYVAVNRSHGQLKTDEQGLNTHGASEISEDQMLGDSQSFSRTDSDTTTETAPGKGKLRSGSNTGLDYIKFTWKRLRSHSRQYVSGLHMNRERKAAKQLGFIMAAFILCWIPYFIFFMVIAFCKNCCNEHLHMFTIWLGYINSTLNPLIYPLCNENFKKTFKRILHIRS
# [22] = biological target: Histamine H4 receptor (Homo sapiens) (UniProt Q9H3N8); settings: Compound concentration 10.0 uM
# [23] = biological target: Serine/threonine-protein kinase MRCK beta (Homo sapiens) (UniProt Q9Y5S2); assay: CDC42 BPB (MRCKB) SelectScreen Kinase panel (LifeTechnologies); settings: Compound concentration 1.0 uM
# Serine/threonine-protein kinase MRCK beta (Homo sapiens), sequence (Q9Y5S2 whole entry): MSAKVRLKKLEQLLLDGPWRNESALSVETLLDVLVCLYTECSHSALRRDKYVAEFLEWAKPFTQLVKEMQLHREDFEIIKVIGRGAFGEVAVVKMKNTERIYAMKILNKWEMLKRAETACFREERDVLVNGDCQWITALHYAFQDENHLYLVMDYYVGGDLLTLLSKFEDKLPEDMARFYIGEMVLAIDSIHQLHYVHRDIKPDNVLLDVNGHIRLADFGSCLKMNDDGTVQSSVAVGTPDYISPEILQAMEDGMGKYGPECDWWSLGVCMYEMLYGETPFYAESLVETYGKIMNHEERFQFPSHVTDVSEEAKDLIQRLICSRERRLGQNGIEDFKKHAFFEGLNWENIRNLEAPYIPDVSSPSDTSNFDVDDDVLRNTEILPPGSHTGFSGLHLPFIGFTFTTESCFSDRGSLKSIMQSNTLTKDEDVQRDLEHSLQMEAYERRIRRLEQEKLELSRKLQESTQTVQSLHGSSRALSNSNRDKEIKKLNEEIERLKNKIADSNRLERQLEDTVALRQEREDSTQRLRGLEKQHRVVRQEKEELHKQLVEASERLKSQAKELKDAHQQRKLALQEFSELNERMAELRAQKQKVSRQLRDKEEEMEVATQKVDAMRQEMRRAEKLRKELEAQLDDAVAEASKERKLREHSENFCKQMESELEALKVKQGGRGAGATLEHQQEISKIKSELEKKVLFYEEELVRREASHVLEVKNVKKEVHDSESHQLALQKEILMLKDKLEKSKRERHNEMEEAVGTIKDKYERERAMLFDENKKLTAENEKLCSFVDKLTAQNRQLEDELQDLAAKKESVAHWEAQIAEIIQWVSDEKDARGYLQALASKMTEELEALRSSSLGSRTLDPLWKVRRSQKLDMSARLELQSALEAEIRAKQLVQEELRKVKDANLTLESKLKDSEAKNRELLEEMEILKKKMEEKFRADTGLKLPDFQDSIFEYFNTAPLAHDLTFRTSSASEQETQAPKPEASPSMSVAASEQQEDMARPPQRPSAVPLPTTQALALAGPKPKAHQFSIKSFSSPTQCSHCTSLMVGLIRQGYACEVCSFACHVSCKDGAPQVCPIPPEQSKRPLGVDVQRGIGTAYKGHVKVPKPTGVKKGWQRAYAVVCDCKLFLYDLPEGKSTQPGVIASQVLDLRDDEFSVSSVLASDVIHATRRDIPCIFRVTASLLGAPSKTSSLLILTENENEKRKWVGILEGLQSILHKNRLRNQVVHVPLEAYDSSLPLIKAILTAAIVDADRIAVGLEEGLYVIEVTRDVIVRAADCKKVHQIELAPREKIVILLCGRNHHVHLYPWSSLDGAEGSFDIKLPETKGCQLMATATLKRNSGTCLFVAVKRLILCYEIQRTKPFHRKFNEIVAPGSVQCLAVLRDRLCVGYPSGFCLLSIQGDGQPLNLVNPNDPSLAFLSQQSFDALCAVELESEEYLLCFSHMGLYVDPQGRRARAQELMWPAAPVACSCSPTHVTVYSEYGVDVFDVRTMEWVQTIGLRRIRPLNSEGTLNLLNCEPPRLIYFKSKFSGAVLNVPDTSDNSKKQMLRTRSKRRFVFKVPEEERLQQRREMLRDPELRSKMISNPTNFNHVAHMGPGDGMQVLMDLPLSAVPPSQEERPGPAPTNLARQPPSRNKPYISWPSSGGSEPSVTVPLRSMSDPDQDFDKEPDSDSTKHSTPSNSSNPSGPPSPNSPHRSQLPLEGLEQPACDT
# [24] = biological target: Ribosomal protein S6 kinase beta-1 (Homo sapiens) (UniProt P23443); assay: RPS6KB1 (p70S6K) SelectScreen Kinase panel (LifeTechnologies); settings: Compound concentration 1.0 uM
# [25] = biological target: D(3) dopamine receptor (Homo sapiens) (UniProt P35462); settings: Compound concentration 10.0 uM
# [26] = biological target: Ribosomal protein S6 kinase alpha-3 (Homo sapiens) (UniProt P51812); assay: RPS6KA3 (RSK2) SelectScreen Kinase panel (LifeTechnologies); settings: Compound concentration 1.0 uM
# [27] = biological target: Sigma intracellular receptor 2 (Homo sapiens) (UniProt Q5BJF2); settings: Compound concentration 10.0 uM
# [28] = biological target: Tyrosine-protein kinase BTK (Homo sapiens) (UniProt Q06187); assay: BTK SelectScreen Kinase panel (LifeTechnologies); settings: Compound concentration 1.0 uM
# [29] = biological target: Protein kinase C epsilon type (Homo sapiens) (UniProt Q02156); assay: PRKCE (PKC epsilon) SelectScreen Kinase panel (LifeTechnologies); settings: Compound concentration 1.0 uM
# Protein kinase C epsilon type (Homo sapiens), sequence (Q02156 whole entry): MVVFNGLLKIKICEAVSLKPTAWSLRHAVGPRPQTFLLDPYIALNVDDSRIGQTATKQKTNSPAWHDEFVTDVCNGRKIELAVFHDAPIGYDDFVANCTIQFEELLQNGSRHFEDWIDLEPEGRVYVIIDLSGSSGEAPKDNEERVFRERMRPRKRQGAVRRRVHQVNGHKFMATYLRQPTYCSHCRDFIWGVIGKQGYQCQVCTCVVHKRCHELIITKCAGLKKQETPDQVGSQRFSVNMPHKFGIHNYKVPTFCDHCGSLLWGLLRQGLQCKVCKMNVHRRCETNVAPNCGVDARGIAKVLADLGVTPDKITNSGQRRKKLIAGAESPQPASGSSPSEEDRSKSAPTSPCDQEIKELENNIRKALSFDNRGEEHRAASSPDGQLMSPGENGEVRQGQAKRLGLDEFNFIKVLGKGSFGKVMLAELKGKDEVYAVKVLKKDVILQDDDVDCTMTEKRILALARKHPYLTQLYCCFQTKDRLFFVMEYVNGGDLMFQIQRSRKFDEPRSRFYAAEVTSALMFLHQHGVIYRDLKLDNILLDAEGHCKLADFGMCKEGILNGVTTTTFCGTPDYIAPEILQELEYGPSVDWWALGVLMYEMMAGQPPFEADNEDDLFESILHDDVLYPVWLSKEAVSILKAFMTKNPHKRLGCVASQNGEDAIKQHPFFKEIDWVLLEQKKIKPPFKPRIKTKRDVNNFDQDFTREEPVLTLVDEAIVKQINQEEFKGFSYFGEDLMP
# [30] = biological target: Ribosomal protein S6 kinase alpha-6 (Homo sapiens) (UniProt Q9UK32); assay: RPS6KA6 (RSK4) SelectScreen Kinase panel (LifeTechnologies); settings: Compound concentration 1.0 uM
# [31] = biological target: 5-hydroxytryptamine receptor 3A (Homo sapiens) (UniProt P46098); settings: Compound concentration 10.0 uM
# [32] = biological target: Mast/stem cell growth factor receptor Kit (Homo sapiens) (UniProt P10721); assay: KIT SelectScreen Kinase panel (LifeTechnologies); settings: Compound concentration 1.0 uM
# [33] = biological target: Receptor-type tyrosine-protein kinase FLT3 (Homo sapiens) (UniProt P36888); assay: FLT3 SelectScreen Kinase panel (LifeTechnologies); settings: Compound concentration 1.0 uM
# [34] = biological target: Histamine H2 receptor (Homo sapiens, UniProt P25021); settings: Compound concentration 10.0 uM
# [35] = biological target: Beta-3 adrenergic receptor (Homo sapiens) (UniProt P13945); settings: Compound concentration 10.0 uM
# [36] = biological target: MAP kinase-activated protein kinase 2 (Homo sapiens) (UniProt P49137); assay: MAPKAPK2 SelectScreen Kinase panel (LifeTechnologies); settings: Compound concentration 1.0 uM
# [37] = biological target: Alpha-1B adrenergic receptor (Homo sapiens, UniProt P35368); assay: GPCRScan assay: inhibition of Alpha1B; design: radioligand conc. used [nm] 0.3 – 1.0, parental cells stable HEK
# [38] = biological target: AMP-activated protein kinase (AMPK) alpha-1/beta-1/gamma-1 (Homo sapiens) (UniProt P54619+Q9Y478+Q13131); assay: AMPK A1/B1/G1 SelectScreen Kinase panel (LifeTechnologies); format: protein-complex assay; settings: Compound concentration 1.0 uM
# [39] = biological target: Alpha-1D adrenergic receptor (Homo sapiens) (UniProt P25100); settings: Compound concentration 10.0 uM
# Alpha-1D adrenergic receptor (Homo sapiens), sequence (P25100 whole entry): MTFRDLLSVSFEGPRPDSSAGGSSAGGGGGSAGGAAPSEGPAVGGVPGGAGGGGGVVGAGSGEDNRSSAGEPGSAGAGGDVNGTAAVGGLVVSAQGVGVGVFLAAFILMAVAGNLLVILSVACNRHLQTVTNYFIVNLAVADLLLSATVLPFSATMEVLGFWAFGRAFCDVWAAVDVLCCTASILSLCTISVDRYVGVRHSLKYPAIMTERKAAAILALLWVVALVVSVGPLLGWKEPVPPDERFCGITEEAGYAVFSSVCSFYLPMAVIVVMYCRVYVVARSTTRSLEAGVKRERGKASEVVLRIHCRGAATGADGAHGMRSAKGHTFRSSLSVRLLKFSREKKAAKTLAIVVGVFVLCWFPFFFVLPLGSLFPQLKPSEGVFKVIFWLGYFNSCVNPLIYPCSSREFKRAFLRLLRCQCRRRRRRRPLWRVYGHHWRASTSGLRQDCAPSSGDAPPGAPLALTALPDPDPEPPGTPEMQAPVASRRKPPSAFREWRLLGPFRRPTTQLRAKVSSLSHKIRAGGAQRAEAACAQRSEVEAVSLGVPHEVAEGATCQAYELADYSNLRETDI
# [40] = biological target: Focal adhesion kinase 1 (Homo sapiens) (UniProt Q05397); assay: PTK2 (FAK) SelectScreen Kinase panel (LifeTechnologies); settings: Compound concentration 1.0 uM
# [41] = biological target: Serine/threonine-protein kinase Sgk2 (Homo sapiens) (UniProt Q9HBY8); assay: SGK2 SelectScreen Kinase panel (LifeTechnologies); settings: Compound concentration 1.0 uM
# Serine/threonine-protein kinase Sgk2 (Homo sapiens), sequence (Q9HBY8 whole entry): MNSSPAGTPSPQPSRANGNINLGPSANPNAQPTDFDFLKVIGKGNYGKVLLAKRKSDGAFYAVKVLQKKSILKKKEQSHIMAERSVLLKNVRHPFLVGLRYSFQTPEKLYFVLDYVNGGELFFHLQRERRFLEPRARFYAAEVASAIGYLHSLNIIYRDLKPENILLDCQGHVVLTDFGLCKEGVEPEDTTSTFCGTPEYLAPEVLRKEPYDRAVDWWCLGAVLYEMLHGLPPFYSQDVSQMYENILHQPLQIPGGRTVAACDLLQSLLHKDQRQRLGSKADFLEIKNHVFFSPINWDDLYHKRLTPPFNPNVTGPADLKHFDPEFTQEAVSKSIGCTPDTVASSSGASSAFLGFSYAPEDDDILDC
# [42] = biological target: Protein kinase C eta type (Homo sapiens) (UniProt P24723); assay: PRKCH (PKC eta) SelectScreen Kinase panel (LifeTechnologies); settings: Compound concentration 1.0 uM
# [43] = biological target: Serine/threonine-protein kinase Chk1 (Homo sapiens) (UniProt O14757); assay: CHEK1 (CHK1) SelectScreen Kinase panel (LifeTechnologies); settings: Compound concentration 1.0 uM
# [44] = biological target: Alpha-2C adrenergic receptor (Homo sapiens) (UniProt P18825); settings: Compound concentration 10.0 uM
# [45] = biological target: D(1B) dopamine receptor (Homo sapiens) (UniProt P21918); settings: Compound concentration 10.0 uM
structure (smiles),measurement,setting,value
C=CC(=O)Nc1ccc2[nH]c(=O)n(C3CCN(Cc4ccc(-c5nc6cc[nH]c(=O)c6cc5-c5ccccc5)cc4)CC3)c2c1 [Borussertib],inhibition,[1],-7%
same,inhibition,[2],6.51%
same,inhibition,[3],-2%
same,inhibition,[4],14%
same,inhibition,[5],4.03%
same,EC50,[6],26 nM (active)
same,IC50,[6],21 nM (active)
same,inhibition,[7],17%
same,inhibition,[8],20%
same,inhibition,[9],15%
same,inhibition,[10],-2.56%
same,inhibition,[11],2%
same,inhibition,[12],-7.81%
same,inhibition,[13],18%
same,inhibition,[14],-3%
same,inhibition,[15],8%
same,inhibition,[16],35.6%
same,inhibition,[17],-3%
same,inhibition,[18],-7%
same,inhibition,[19],6%
same,inhibition,[20],1%
same,inhibition,[21],23.8%
same,inhibition,[22],31.3%
same,inhibition,[23],1%
same,inhibition,[24],2%
same,inhibition,[25],20.9%
same,inhibition,[26],21%
same,inhibition,[27],24.8%
same,inhibition,[28],6%
same,inhibition,[29],-1%
same,inhibition,[30],14%
same,inhibition,[31],30.2%
same,inhibition,[32],8%
same,inhibition,[33],17%
same,inhibition,[34],65.1%
same,inhibition,[35],9.68%
same,inhibition,[36],30%
same,Ki,[37],4240 nM
same,inhibition,[38],14%
same,inhibition,[39],22.1%
same,inhibition,[40],4%
same,inhibition,[41],6%
same,inhibition,[42],-2%
same,inhibition,[43],-4%
same,inhibition,[44],-7.2%
same,inhibition,[45],28.8%
